We go through 1 molecule from patent publication US7625713B2, “Process for identifying a ligand that binds to the NEP binding site for the SMR1 pentapeptide” (Institut Pasteur, priority 2000, dated 2009).

The test has as its target T1, NEP (Rattus norvegicus, UniProt P07861).
T1 construct: incubations of membrane and fresh tissue slice preparations from nervous tissues; from tissue; host or cells: dorsal spinal cord of male Wistar rats (fresh slices or 100 000 x g membrane fraction)
T1 sequence (P07861 1-750): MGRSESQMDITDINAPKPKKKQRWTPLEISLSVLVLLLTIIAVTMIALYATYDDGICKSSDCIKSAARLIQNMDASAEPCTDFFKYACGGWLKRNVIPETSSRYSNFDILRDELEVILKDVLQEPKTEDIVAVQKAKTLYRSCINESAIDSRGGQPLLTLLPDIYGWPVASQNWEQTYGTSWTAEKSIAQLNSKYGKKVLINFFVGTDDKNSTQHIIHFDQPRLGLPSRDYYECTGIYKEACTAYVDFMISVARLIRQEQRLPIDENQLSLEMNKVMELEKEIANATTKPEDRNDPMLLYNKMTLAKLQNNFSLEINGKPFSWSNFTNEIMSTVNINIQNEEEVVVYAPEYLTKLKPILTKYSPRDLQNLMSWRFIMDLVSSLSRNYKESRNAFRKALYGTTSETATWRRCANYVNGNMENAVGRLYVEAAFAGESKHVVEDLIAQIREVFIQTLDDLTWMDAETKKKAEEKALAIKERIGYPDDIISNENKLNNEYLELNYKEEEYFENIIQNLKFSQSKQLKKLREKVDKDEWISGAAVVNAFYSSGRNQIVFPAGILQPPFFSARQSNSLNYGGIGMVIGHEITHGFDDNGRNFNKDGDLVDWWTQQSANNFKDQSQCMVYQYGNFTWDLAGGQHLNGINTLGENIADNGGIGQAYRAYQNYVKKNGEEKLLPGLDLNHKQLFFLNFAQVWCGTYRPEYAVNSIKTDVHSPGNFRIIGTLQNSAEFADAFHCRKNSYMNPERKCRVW
Description: Met-enkephalin hydrolysis by rat spinal cord slices and membrane preparations, RP-HPLC analysis. In kind it is biochemical. As to conditions: 10 μM combined with the inhibitors of CPB and DPPIV (10 μM), spinal cord slices, 20 min at 25° C. How it is done: FIG. 2-B: […] Retention time) recovered after 20 min. incubation at 25° C. with 1 mg fresh tissue slices in a 1 ml final volume of KRBG buffer. The organs are rapidly removed, dissected on ice, freed of nerve fibers and of adipose tissues and then washed in cold oxygenated glucose- and bicarbonate-containing Krebs Ringer (KRBG) solution, whose composition is the following: 120 mM NaCl-5 mM KCl-1.2 mM KH2PO4-27.5 mM NaHCO3-2.6 mM CaCl2-0.67 mM MgSO4-5.9 mM glucose. The slices of tissues are prepared either manually with the aid of a scalpel (1-2 mm thick), or mechanically with the aid of a “Tissue Chopper” (1 mm thick). Slices are then dispersed into reaction tubes where they are subjected to three successive washes in ice-cold oxygenated KRBG. […] The organs dissected out and washed in ice-cold KRBG are homogenized at 4° C. in 10 volumes (vol./wt.) of 50 mM Tris/HCl buffered at pH 7.2, using a Teflon-glass homogenizer (3×5 sec.). […] The metabolism rate of the NEP-sensitive peptides was measured using the both NEP substrates involved in the signaling of the nociceptive response: the neuropeptides Met-enkephalin and Substance P. […] Their identification and relative quantification (peak height) are checked by continuously monitoring the UV absorbance at 254 nm of column outflow. […]

Where a SMILES comes first, the peptide text is derived from it.

With `N=C(N)NCCC[C@H](NC(=O)[C@@H]1CCCN1C(=O)[C@H](CC(N)=O)NC(=O)[C@H](Cc1c[nH]cn1)NC(=O)[C@@H](N)CCC(N)=O)C(=O)O` [sialorphin, Gln-His-Asn-Pro-Arg] (H-QHNPR-OH; N-terminus and C-terminus assumed), the “inhibition of Met-enkephalinase activity (Met-enkephalin degradation)” value came out at 80%.
